Assay results reported in patent publication US8445207B2, “Genes based on thalidomide, valproic acid and methotrexate treatment for screening of drug inducing teratogenicity and screening method using thereof” (priority 2009, dated 2013).

Tests used:
[1] = tested on: JEG-3 (human placental choriocarcinoma cell line); experiment: Oligo microarray gene expression in drug-treated JEG-3 (Cy5 treated / Cy3 control); type: cell-based
Method: Thalidomide, valproic acid, and methotrexate were treated to human placental choriocarcinoma cell line at the concentrations determined above (Inhibition concentration: the concentration that can kill approximately 30% of the total cells, that is the concentration of 70% viability, IC30). mRNA was extracted from the drug treated cell line, followed by synthesis of cDNA which was labeled with Cy5. The non-treated control was labeled with Cy3. The fluorescence labeled cDNA was hybridized with 41K (thalidomide), 44K (valproic acid, methotrexate) human whole genome oligomicroarray chips (Agilent, USA), followed by fluorescent image scanning to analyze gene expression patterns (see FIG. 4). Volcano Plot of each substance was also attached. Y axis indicates probability (generally converted by −log 10). X axis indicates differential expression, which is presented by log-ratio.
Total RNA was separated from the treated cell by using trizol reagent (Invitrogen Life Technologies, USA) according to the manufacture's instructions, followed by purification using RNeasy mini kit (Qiagen, USA). Genomic DNA was eliminated during RNA purification using RNase-free DNase set (Qiagen, USA).
30 μg of the total RNA obtained above and 2 μg (1 μg/μl) of oligo (dT) primer were mixed, followed by reaction at 65° C. for 10 minutes. Annealing was performed in ice right after the reaction. Reagents were prepared as shown in Table 1 for reverse transcription of the annealed RNA.
The total RNA separated from the control group JEG-3 cells was labeled with Cy3-dUTP (green) and the total RNA separated from the experiment group JEG-3 cells treated with thalidomide, valproic acid and methotrexate was labeled with Cy5-dUTP (red). At this time, the two samples were mixed and purified by Microcon YM-30 column (Millipore, USA).
Hybridization and washing were performed by the manufacturer's (GenoCheck, Korea) instructions. Particularly, hybridization was performed in a 62° C. oven for 12 hours. As a DNA microarray chip, 44 k whole human genome oligo microarray (Agilent, USA) was used. After washing (2 minutes with 2×SSC/0.1% SDS, three minutes with 1×SSC, 2 minutes with 0.2×SSC), the slide was dried by centrifugation at 800 rpm for 3 minutes.
Hybridization image on the slide was scanned with Genepix 4000B (Axon Instruments, USA). Fluorescence image of the chip on which non-hybridized genes had been washed out was obtained by using laser fluorescence scanner. Green fluorescence image indicates the activity of gene specifically expressed in the control group and red fluorescence image indicates the activity of gene specifically expressed in the experimental group. […] Scanned image was analyzed by using GenePix 4.1 software (Axon Instruments, USA) to calculate gene expression rate.

[2] = tested on: JEG-3 (human placental choriocarcinoma cell line); experiment: Real-time RT-PCR quantification of gene expression in drug-treated JEG-3; type: cell-based
Method: My IQ Real-Time PCR (Bio-Rad, USA) was performed to quantify the expressions of those genes.
Particularly, cDNA was synthesized using oligo dT primer and Superscript kit (Omniscipt™ kit, Qiagen, Co., USA) by reverse transcription. 0.2 μl of the cDNA, 3.8 μl of water, 0.5 μg of a sense primer, 0.5 μg of an antisense primer, and […] of SYBR Green I supermix (Bio-Rad, USA) were mixed, which was placed in a PCR tube, followed by real-time RT-PCR in My IQ real-time PCR machine as follows: Step 1: 95°, 3 minutes; Step 2 (45 cycles): Step 2-1: 95°, 10 seconds; Step 2-2: 55-65° 45 seconds; Step 3: 95°, 1 minute; Step 4: 55°, 1 minute; Step 5 (80 cycles): 55°, 10 seconds. SYBR green I (Bio-Rad, USA) staining was performed to quantify the PCR product. SYBR I staining is the staining method using double stranded DNA binding. So, the more double stranded DNA is generated during PCR, the stronger the fluorescence intensity becomes. First, target gene and endogenous control (GAPDH) primers were added to SYBR green master mix, followed by PCR. Then, primer optimization was performed to determine a proper concentration. Synthesized cDNA and each primer were mixed (Table 4), to which SYBR master mix was added, followed by PCR.

[3] = out of 21797 (thalidomide), 21921 (valproic acid), 24006 (methotrexate) genes
[4] = treated at IC30, up-regulated gene, (k) common gene which has no function

For O=C1CCC(N2C(=O)c3ccccc3C2=O)C(=O)N1 (stereo not shown) [THA, thalidomide], the “cDNA microarray (Cy3/Cy5 ratio), KIAA0310” value ([1]; GenBank AB002308) was 1.94, the “cDNA microarray (Cy3/Cy5 ratio), ATP10B” value ([1]; GenBank AB018258) was 3.11 and the “cDNA microarray (Cy3/Cy5 ratio), TTF2” value ([1]; GenBank AB209845) was 1.58. For the same molecule, the “cDNA microarray (Cy3/Cy5 ratio), TncRNA” value ([1]; GenBank AF001893) was 1.5, the “cDNA microarray (Cy3/Cy5 ratio), C4orf19” value ([1]; GenBank AK001879) was 1.51 and the “cDNA microarray (Cy3/Cy5 ratio), CYP19A1” value ([1]; GenBank AK023571) was 2.03. For the same molecule, the “cDNA microarray (Cy3/Cy5 ratio), SLC40A1” value ([1]; GenBank AK023574) was 1.5, the “cDNA microarray (Cy3/Cy5 ratio), ABTB2” value ([1]; GenBank AK095632) was 1.78 and the “cDNA microarray (Cy3/Cy5 ratio), TUBB3” value ([1]; GenBank AK122757) was 2.03. The “cDNA microarray (Cy3/Cy5 ratio), MGC27016” value ([1]; GenBank AK125877) was 1.51, the “cDNA microarray (Cy3/Cy5 ratio), GLCCI1” value ([1]; GenBank AK126731) was 1.56 and the “cDNA microarray (Cy3/Cy5 ratio), TFCP2L4” value ([1]; GenBank BC036890) was 1.61. For the same molecule, the “cDNA microarray (Cy3/Cy5 ratio), RGS2” value ([1]; GenBank BC042755) was 1.78, the “cDNA microarray (Cy3/Cy5 ratio), SIAT7A” value ([1]; GenBank BC063830) was 2.54 and the “cDNA microarray (Cy3/Cy5 ratio), B7-H4” value ([1]; GenBank BX648021) was 0.52. For the same molecule, the “cDNA microarray (Cy3/Cy5 ratio), COBLL1” value ([1]; GenBank BX649112) was 1.85, the “cDNA microarray (Cy3/Cy5 ratio), CGA” value ([1]; GenBank NM_000735) was 3.04 and the “cDNA microarray (Cy3/Cy5 ratio), PARP1” value ([1]; GenBank NM_001618) was 0.66. The “cDNA microarray (Cy3/Cy5 ratio), SERPINB9” value ([1]; GenBank NM_004155) was 1.73, the “cDNA microarray (Cy3/Cy5 ratio), ST8SIA4” value ([1]; GenBank NM_005668) was 1.69 and the “cDNA microarray (Cy5 treated / Cy3 control ratio), ABL1” value ([1]; GenBank NM_007313) was 0.65. The “cDNA microarray (Cy3/Cy5 ratio), GRLF1” value ([1]; GenBank NM_024342) was 0.55, the “cDNA microarray (Cy3/Cy5 ratio), LGP1” value ([1]; GenBank NM_032484) was 0.58 and the “cDNA microarray (Cy3/Cy5 ratio), NCOA3” value ([1]; GenBank NM_181659) was 1.64. The “cDNA microarray (Cy3/Cy5 ratio), SR140” value ([1]; GenBank XM_031553) was 0.5, the “cDNA microarray (Cy3/Cy5 ratio), SLC7A8” value ([1]; GenBank Y18483) was 1.71 and the “Ratio of intermediate value, IGF2” value ([1]; Genbank AK074614, drug at IC30) was 0.64. The “Ratio of intermediate value, GRLF1” value ([1]; Genbank BI494022, NM_024342, drug at IC30) was 0.55, the “Ratio of intermediate value, B7-H4” value ([1]; Genbank BX648021, drug at IC30) was 0.52 and the “Ratio of intermediate value, PARP1” value ([1]; Genbank NM_001618, drug at IC30) was 0.66. For the same molecule, the “Ratio of intermediate value, NRP1” value ([1]; Genbank NM_003873, drug at IC30) was 0.62, the “Ratio of intermediate value, HAND1” value ([1]; Genbank NM_004821, drug at IC30) was 0.61 and the “Ratio of intermediate value, ABL1” value ([1]; Genbank NM_007313, drug at IC30) was 0.65. For the same molecule, the “Ratio of intermediate value, LGP1” value ([1]; Genbank NM_032484, drug at IC30) was 0.58, the “Ratio of intermediate value, SR140” value ([1]; Genbank XM_031553, drug at IC30) was 0.50 and the “genes down-regulated (ratio of intermediate value less than 0.666)” value ([1]; JEG-3, drug at IC30, 48 hours) was 0.34%. The “genes up-regulated (ratio of intermediate value more than 1.5)” value ([1]; JEG-3, drug at IC30, 48 hours) was 0.95%, the “number of genes down-regulated” value [1, 3] was 74 and the “number of genes up-regulated” value [1, 3] was 208. The “Ratio of intermediate value, gene ATP10B (AB018258, ATPase, Class V, type 10B)” value [1, 4] was 3.11, the “Ratio of intermediate value, gene BQ186674 (cDNA clone UI-E-EJ1-ajr-f-10-0-UI, Hypothetical gene supported by AF086204)” value [1, 4] was 1.60 and the “Ratio of intermediate value, gene BX111592 (Transcribed locus, moderately similar to XP_066443.6 PREDICTED: similar to paraneoplastic antigen like 6A)” value [1, 4] was 2.17. The “Ratio of intermediate value, gene CGA (NM_000735, Glycoprotein hormones, alpha polypeptide)” value [1, 4] was 3.04, the “Ratio of intermediate value, gene COBLL1 (BX649112, COBL-like 1)” value [1, 4] was 1.85 and the “Ratio of intermediate value, gene CYP19A1 (AK023571, Cytochrome P450, family 19, subfamily A, polypeptide 1)” value [1, 4] was 2.03. The “Ratio of intermediate value, gene FLJ11017 (AK001879, Hypothetical protein FLJ11017)” value [1, 4] was 1.51, the “Ratio of intermediate value, gene GLCCI1 (AK126731, Glucocorticoid induced transcript 1)” value [1, 4] was 1.56 and the “Ratio of intermediate value, gene KIAA0310 (AB002308, KIAA0310)” value [1, 4] was 1.94. The “Ratio of intermediate value, gene MGC27016 (AK125877, Hypothetical protein MGC27016)” value [1, 4] was 1.51, the “Ratio of intermediate value, gene NCOA3 (NM_181659, Nuclear receptor coactivator 3)” value [1, 4] was 1.64 and the “Ratio of intermediate value, gene RGS2 (BC042755, Regulator of G-protein signalling 2, 24 kDa)” value [1, 4] was 1.78. The “Ratio of intermediate value, gene SIAT7A (BC063830, ST6 (alpha-N-acetyl-neuraminyl-2,3-beta-galactosyl-1,3)-N-acetylgalactosaminide alpha-2,6-sialyltransferase 1)” value [1, 4] was 2.54, the “Ratio of intermediate value, gene SIAT8D (NM_005668, ST8 alpha-N-acetyl-neuraminide alpha-2,8-sialyltransferase 4)” value [1, 4] was 1.69 and the “Ratio of intermediate value, gene SLC7A8 (Y18483, Solute carrier family 7 (cationic amino acid transporter, y+ system), member 8)” value [1, 4] was 1.71. For the same molecule, the “Ratio of intermediate value, gene SLC40A1 (AK023574, Solute carrier family 40 (iron-regulated transporter), member 1)” value [1, 4] was 1.50, the “Ratio of intermediate value, gene TFCP2L4 (BC036890, Grainyhead-like 3 (Drosophila))” value [1, 4] was 1.61 and the “Ratio of intermediate value, gene TTF2 (AB209845, Transcription termination factor, RNA polymerase II)” value [1, 4] was 1.58. For the same molecule, the “Ratio of intermediate value, gene TUBB3 (AK122757, Tubulin, beta 3)” value [1, 4] was 2.03, the “Ratio of intermediate value, gene TncRNA (AF001893, Trophoblast-derived noncoding RNA)” value [1, 4] was 1.50 and the “Real time PCR (Relative ratio), KIAA0310” value ([2]; GenBank AB002308) was 4.78. The “Real time PCR (Relative ratio), ATP10B” value ([2]; GenBank AB018258) was 4.7689, the “Real time PCR (Relative ratio), TTF2” value ([2]; GenBank AB209845) was 1.6625 and the “Real time PCR (Relative ratio), TncRNA” value ([2]; GenBank AF001893) was 5.9587. The “Real time PCR (Relative ratio), C4orf19” value ([2]; GenBank AK001879) was 1.6143, the “Real time PCR (Relative ratio), CYP19A1” value ([2]; GenBank AK023571) was 2.6408 and the “Real time PCR (Relative ratio), SLC40A1” value ([2]; GenBank AK023574) was 2.1558. For the same molecule, the “Real time PCR (Relative ratio), ABTB2” value ([2]; GenBank AK095632) was 1.4359, the “Real time PCR (Relative ratio), TUBB3” value ([2]; GenBank AK122757) was 2.8114 and the “Real time PCR (Relative ratio), MGC27016” value ([2]; GenBank AK125877) was 2.3438. For the same molecule, the “Real time PCR (Relative ratio), GLCCI1” value ([2]; GenBank AK126731) was 1.5509, the “Real time PCR (Relative ratio), TFCP2L4” value ([2]; GenBank BC036890) was 2.5111 and the “Real time PCR (Relative ratio), RGS2” value ([2]; GenBank BC042755) was 3.4255. The “Real time PCR (Relative ratio), SIAT7A” value ([2]; GenBank BC063830) was 2.5019, the “Real time PCR (Relative ratio), B7-H4” value ([2]; GenBank BX648021) was 0.5 and the “Real time PCR (Relative ratio), COBLL1” value ([2]; GenBank BX649112) was 1.5201. For the same molecule, the “Real time PCR (Relative ratio), CGA” value ([2]; GenBank NM_000735) was 2.9963, the “Real time PCR (Relative ratio), PARP1” value ([2]; GenBank NM_001618) was 0.805 and the “Real time PCR (Relative ratio), SERPINB9” value ([2]; GenBank NM_004155) was 2.2852. The “Real time PCR (Relative ratio), ST8SIA4” value ([2]; GenBank NM_005668) was 1.8635, the “Real time PCR (Relative ratio), ABL1” value ([2]; GenBank NM_007313) was 0.6781 and the “Real time PCR (Relative ratio), GRLF1” value ([2]; GenBank NM_024342) was 0.689. For the same molecule, the “Real time PCR (Relative ratio), LGP1” value ([2]; GenBank NM_032484) was 0.4867, the “Real time PCR (Relative ratio), NCOA3” value ([2]; GenBank NM_181659) was 2.9283 and the “Real time PCR (Relative ratio), SR140” value ([2]; GenBank XM_031553) was 0.6423. For the same molecule, the “Real time PCR (Relative ratio), SLC7A8” value ([2]; GenBank Y18483) was 1.6327.
